Literature values in patent publication US20070183984A1, “CALCIUM PHOSPHATE SALTS IN ORAL COMPOSITIONS SUITABLE AS A TOOTH REMINERALIZING AGENT” (WM. WRIGLEY JR. COMPANY, priority 2006, published 2007).

Tests used:
[1] = g in about 100 ml of water at about 20° C.
[2] = octanol/water partition coefficient

Compound | solubility in water [1] | Log Pow [2]
O=C(O)CCCCC(=O)O [adipic acid] |  | 0.08
O=C(O)/C=C/C(=O)O [fumaric acid] | about 0.6% | 
O=C(O)CC(O)C(=O)O (stereo not drawn) [malic acid] | about 55% | −1.26

Further lines, results first:

solubility in water [1] | Log Pow [2] | Compound
about 5% |  | polyglutamic acid
about 5% |  | polyaspartic acid
